Data taken from patent US20230312564A1, “AROMATIC RING-LACTAM COMPOUND, PREPARATION METHOD THEREFOR AND USE THEREOF” (SHANGHAI RINGENE BIOPHARMA CO., LTD., priority 2020, published 2023).

Key:
[1] = test system: T1, ERK1/2 kinase; assay: ERK1/2 kinase (Carna) inhibitory activity, Caliper mobility shift; assay type: biochemical
T1 construct: fused on or other part: Carna's ERK products carry a GST tag by vendor knowledge
How it was run: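 Compounds tested from 10 μM top concentration, 3-fold dilutions to 10 points, in duplicate, in 1× kinase buffer; Caliper mobility-shift readout.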

[2] = Liver microsomal metabolic stability, rat; assay type: in vitro ADME; conditions: liver microsomes, 0.5 mg/mL microsomes, 1 μM compound, NADPH, read-out: Liver microsomal stability T1/2
Procedure: (§1) The reaction was stopped with tinidazole-containing acetonitrile at 0 min, 5 min, 10 min and 30 min, respectively. After vortexing for 10 min and centrifuging at 15,000 rmp for 10 min, 50 μL of the supernatant was injected into a 96-well plate. The metabolic stability of the compound was calculated by determining the relative reduction of the drug, calculated as half-life T1/2.

[3] = Liver microsomal metabolic stability, human; assay type: in vitro ADME; conditions: liver microsomes, 0.5 mg/mL microsomes, 1 μM compound, NADPH, read-out: Liver microsomal stability T1/2
Procedure: as §1

[4] = Liver microsomal stability, comparisons in words across species; assay type: in vitro ADME; conditions: different species; versus the comparative compounds
Procedure: as §1

[5] = target: CYP2C8 (Homo sapiens, UniProt P11712); assay: Direct inhibition test (DI test) in human liver microsomes, CYP2C8; assay type: in vitro ADME
Chain of CYP2C8 (P11712 whole entry): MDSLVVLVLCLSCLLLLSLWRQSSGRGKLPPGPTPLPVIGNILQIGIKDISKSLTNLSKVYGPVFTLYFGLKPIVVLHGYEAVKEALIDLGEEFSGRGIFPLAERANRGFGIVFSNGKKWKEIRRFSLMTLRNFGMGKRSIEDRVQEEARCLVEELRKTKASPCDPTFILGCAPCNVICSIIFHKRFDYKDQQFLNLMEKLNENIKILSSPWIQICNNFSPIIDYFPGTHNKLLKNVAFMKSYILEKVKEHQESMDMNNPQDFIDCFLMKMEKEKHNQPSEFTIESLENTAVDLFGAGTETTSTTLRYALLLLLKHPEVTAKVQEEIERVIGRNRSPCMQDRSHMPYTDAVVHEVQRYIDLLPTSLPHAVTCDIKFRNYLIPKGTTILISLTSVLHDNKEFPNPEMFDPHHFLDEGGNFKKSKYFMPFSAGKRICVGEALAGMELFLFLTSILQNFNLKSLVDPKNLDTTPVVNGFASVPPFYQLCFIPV

[6] = target: T2, CYP2C19 (Homo sapiens, UniProt P33261); assay: Direct inhibition test (DI test) in human liver microsomes, CYP2C19; assay type: in vitro ADME
T2 construct: A system containing 100 μL of human liver microsomes; from tissue; host or cells: human liver microsomes
T2 sequence (P33261 whole entry): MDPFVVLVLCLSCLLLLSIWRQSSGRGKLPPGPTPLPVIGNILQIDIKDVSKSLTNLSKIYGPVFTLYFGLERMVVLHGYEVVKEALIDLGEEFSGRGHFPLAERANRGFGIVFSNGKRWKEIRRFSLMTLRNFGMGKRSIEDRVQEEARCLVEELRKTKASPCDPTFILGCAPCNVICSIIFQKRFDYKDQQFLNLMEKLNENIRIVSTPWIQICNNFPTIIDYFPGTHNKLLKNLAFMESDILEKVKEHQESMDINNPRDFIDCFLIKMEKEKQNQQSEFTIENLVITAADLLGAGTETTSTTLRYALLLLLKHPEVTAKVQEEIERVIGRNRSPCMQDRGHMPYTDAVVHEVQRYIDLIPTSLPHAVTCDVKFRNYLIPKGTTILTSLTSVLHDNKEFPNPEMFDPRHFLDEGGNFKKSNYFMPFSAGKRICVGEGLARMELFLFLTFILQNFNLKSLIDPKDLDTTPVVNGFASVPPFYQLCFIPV
Procedure: (§2) (2) Direct inhibition test (DI test): A system containing 100 μL of human liver microsomes (final concentration of 0.2 mg/mL) was subjected to a direct inhibition incubation, and the system contained NADPH (final concentration of 1 mM), 10 μM compound, positive inhibitor cocktail (10 μM ketoconazole, 10 μM quinidine, 100 μM sulfaphenazole, 10 μM α-naphthoflavone, 1,000 μM tranylcypromine), negative control (BPS of 0.1% DMSO), and mixed probe substrates (10 μM midazolam, 100 μM testosterone, 10 μM dextromethorphan, […], 100 μM phenacetin, 100 μM mephenytoin). After 20 minutes of incubation, the reaction was stopped. The relative activity of the enzyme was calculated by measuring the relative production of metabolites.

[7] = target: T3, CYP3A4 (Homo sapiens, UniProt P08684); assay: Direct inhibition test (DI test) in human liver microsomes, CYP3A4; assay type: in vitro ADME
T3 construct: A system containing 100 μL of human liver microsomes; from tissue; host or cells: human liver microsomes
T3 sequence (P08684 whole entry): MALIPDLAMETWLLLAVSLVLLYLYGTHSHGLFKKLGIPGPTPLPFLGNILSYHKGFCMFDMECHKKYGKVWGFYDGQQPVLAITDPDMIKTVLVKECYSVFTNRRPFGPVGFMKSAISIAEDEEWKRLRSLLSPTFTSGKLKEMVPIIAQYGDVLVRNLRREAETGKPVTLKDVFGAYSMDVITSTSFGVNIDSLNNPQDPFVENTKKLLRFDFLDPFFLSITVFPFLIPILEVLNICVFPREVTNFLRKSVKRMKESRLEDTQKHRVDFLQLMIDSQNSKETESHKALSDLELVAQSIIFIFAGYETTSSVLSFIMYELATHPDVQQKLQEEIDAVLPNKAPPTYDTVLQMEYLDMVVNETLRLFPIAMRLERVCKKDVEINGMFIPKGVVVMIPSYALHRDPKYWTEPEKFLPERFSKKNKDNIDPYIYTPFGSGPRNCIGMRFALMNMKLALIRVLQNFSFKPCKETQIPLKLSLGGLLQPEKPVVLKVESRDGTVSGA
Procedure: as §2

[8] = target: T4, CYP2D6 (Homo sapiens, UniProt P10635); assay: Direct inhibition test (DI test) in human liver microsomes, CYP2D6; assay type: in vitro ADME
T4 construct: A system containing 100 μL of human liver microsomes; from tissue; host or cells: human liver microsomes
T4 sequence (P10635 whole entry): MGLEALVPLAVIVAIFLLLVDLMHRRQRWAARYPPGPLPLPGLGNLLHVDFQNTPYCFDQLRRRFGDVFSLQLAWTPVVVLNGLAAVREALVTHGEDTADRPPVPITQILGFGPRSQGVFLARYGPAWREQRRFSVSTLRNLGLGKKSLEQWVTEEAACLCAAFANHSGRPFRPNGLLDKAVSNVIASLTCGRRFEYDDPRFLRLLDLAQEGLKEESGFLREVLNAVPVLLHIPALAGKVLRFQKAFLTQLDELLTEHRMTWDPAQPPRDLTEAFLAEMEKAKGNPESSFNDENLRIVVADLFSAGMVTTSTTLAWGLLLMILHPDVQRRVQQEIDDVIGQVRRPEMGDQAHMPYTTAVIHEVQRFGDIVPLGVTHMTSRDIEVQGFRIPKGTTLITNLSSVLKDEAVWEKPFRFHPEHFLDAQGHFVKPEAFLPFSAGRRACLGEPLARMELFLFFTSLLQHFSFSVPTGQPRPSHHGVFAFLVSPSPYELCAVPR
Procedure: as §2

[9] = In-vivo pharmacokinetic parameters in SD rats
Procedure: Six male SPF grade SD rats or Balb-c mice (Shanghai Sipple-Bikai Laboratory Animal) were divided into two groups, and the tested compounds were prepared into appropriate solutions or suspensions; one group was administered intravenously (with a dose of 1 mg/kg), and the other group was administered orally (with a dose of 5 mg/kg). Blood samples were collected by jugular vein puncture, and each sample was collected with a volume of about 0.2 mL/time point, and heparin sodium was used for anticoagulation. The time points of blood collection were listed below: 5, 15 and 30 min […], 1, 2, 4, 6, 8 and 24 h after administration; the collected blood samples were placed on ice and centrifuged to separate plasma (centrifugation conditions: 8,000 rpm, 6 min, 2 to 8° C.), and the collected plasma was stored at −80° C. before analysis. Plasma samples were analyzed by LC-MS/MS.
The pharmacokinetic parameters such as AUC0-t, AUC0-∞, MRT0-∞, Cmax, Tmax, T1/2 and Vd of the tested compounds and their mean values and standard deviations were calculated by the pharmacokinetic calculation software WinNonlin5.2 non-compartmental model according to the plasma concentration data. In addition, the bioavailability (F) was calculated by the following formula.
For samples with concentrations below the lower limit of quantitation, while pharmacokinetic parameter calculations were performed, samples sampled before Cmax was reached should be calculated as a zero value and samples sampled after Cmax was reached should be calculated as below limit of quantitation (BLQ).

[10] = test system: Colo-205 transplanted tumor; assay: Growth inhibition of nude mice Colo-205 transplanted tumor; assay type: in vivo
[11] = male, rat, plasma, 1 mg/kg, IV, 1 mpk
[12] = male, rat, plasma, 5 mg/kg, PO, 5 mpk

COc1cc(F)cc([C@@H](CO)NC(=O)[C@@H](C)N2Cc3ccc(-c4nc(NC5CCOCC5)ncc4F)c(F)c3C2=O)c1 [Embodiment 40]
enzyme inhibitory activity (in words) [1]: extremely strong enzyme inhibitory activity
IC50 ([1]; numeric values, read-out: ERK½ IC50): < 0.001 µM
half-life at 1 μM [2]: 14 min
half-life at 1 μM [3]: 14 min
stability of different kinds of liver microsomes (in words) [4]: significant advantages
IC50 at 20 min [5]: > 10 µM
IC50 [6]: > 10 µM
IC50 [7]: > 10 µM
IC50 [8]: > 10 µM
F ([9]; PO 5 mpk vs IV 1 mpk): 29%
AUC(0-inf) [9, 11]: 0.304 µM·h
AUC(0-t) [9, 11]: 0.303 µM·h
MRT inf [9, 11]: 12 min
clearance [9, 11]: 94 mL/min/kg
half-life [9, 11]: 18 min
Vd ([9]; male, rat, plasma, 1 mg/kg, IV, 1 mpk, read-out: Vss): 0.9 L/kg
AUC(0-inf) [9, 12]: 0.436 µM·h
AUC(0-t) [9, 12]: 0.432 µM·h
Cmax [9, 12]: 476 nM
Tmax [9, 12]: 18 min
half-life [9, 12]: 66 min
T/C ([10]; 25 mg/kg, bidx21, po): 7.2%
Initial weight (D0) ([10]; 25 mg/kg, bidx21, po): 19.5 g
Terminal weight (D21) ([10]; 25 mg/kg, bidx21, po): 21.0 g
Initial tumor volume ([10]; 25 mg/kg, bidx21, po): 97 ± 26 mm^3
Terminal tumor volume ([10]; 25 mg/kg, bidx21, po): 67 ± 14 mm^3
T/C ([10]; 50 mg/kg, qdx21, po): 23.2%
Initial weight (D0) ([10]; 50 mg/kg, qdx21, po): 21.4 g
Terminal weight (D21) ([10]; 50 mg/kg, qdx21, po): 23.2 g
Initial tumor volume ([10]; 50 mg/kg, qdx21, po): 98 ± 22 mm^3
Terminal tumor volume ([10]; 50 mg/kg, qdx21, po): 238 ± 130 mm^3
effect on the tumor weight (in words) ([10]; dose of 50 mg/kg or 25 mg/kg): no significant effect on the tumor weight
tumor growth of Colo-205 transplanted tumor nude mice (in words) ([10]; dose of 50 mg/kg or 25 mg/kg): significantly inhibited the tumor growth
